From US9474744B2, “Beta-lactam compounds for treating diabetes” (STEM CELL MEDICINE LTD., priority 2011, dated 2016)
Entries after “also recorded” stand apart in the source; their conditions may differ.

What was measured:
[1] = target: T1, albumin of human CD3 T cells (Homo sapiens, UniProt P02768); assay: Western blot with Pen 9 antibody of antibiotic-treated human T cells; type: cell-based; settings: T cells activated by mitogen in presence of antibiotic
T1 construct: endogenous in cells; host or cells: primary human peripheral-blood T cells (CD3+, CD4+ or CD8+) from healthy donors
T1 sequence (P02768 25-609): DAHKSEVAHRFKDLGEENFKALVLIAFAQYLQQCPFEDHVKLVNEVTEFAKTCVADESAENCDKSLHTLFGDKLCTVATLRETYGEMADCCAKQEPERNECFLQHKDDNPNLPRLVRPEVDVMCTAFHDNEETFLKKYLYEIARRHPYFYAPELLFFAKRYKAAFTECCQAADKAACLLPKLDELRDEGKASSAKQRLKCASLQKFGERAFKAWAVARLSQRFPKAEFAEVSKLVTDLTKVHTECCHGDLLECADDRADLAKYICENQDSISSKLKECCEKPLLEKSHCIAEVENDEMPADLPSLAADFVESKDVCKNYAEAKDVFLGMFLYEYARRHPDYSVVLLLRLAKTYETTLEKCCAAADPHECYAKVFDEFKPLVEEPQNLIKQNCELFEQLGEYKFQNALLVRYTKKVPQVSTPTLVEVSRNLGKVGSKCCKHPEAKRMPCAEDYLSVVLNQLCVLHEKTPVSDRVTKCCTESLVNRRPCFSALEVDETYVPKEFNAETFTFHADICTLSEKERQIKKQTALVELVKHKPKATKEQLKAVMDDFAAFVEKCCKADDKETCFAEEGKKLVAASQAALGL
Experimental: Rat tissues were ground with a tissue grinder in lysis buffer. The homogenate was centrifuged 14000 g for 15 min in 4° C. and the supernatant was used for western blotting. The protein concentration was determined using the BIO-RAD DC™ protein assay (Bio-Rad laboratories, Hercules, Calif.). Following electrophoresis in SDS gel in a mini-gel apparatus (Bio-Rad), the gels were electro-transferred to nitrocellulose membranes (Schleicher and schuell, Dassel, Germany). The nitrocellulose membranes were washed with distilled water for 5 min, and then blocked for 60 min. using a blocking solution composed of 2% bovine serum albumin (Fraction V, Sigma, St. Louis Mo.), 2.5% milk powder (Bio-Rad), Tris (Sigma) pH 7.5 10 mM, NaCl 150 mM and 0.02% thimerosal (Sigma). After 3×10 min. washes in PBS/TWEEN® 20 (PBS/T; 0.02%, Sigma), primary antibodies (1/1000) were incubated with the membranes in PBS/TWEEN® for 60 min. Following another series of washes in PBS/T (3×10 min), the membranes were incubated with a secondary antibody (Peroxidase conjugated anti rabbit or anti mouse, IgG Jackson ImmunoResearch, West Grove, Calif.) at a 1/2500 dilution in 2% milk in PBS solution for 60 min. After another 3×10 min washes, the membranes were incubated with the ECL reagent (for 60 seconds) and exposed to X-ray film.

NOD mice = assay: Development of autoimmune diabetes in NOD mice; type: in vivo, mouse
Description: Inbred female Lewis rats and NOD (non-obese diabetic) mice were supplied by the animal breeding center of the Weizmann Institute of Science, Israel, under the supervision of Harlan Laboratories and were used at 2-3 months of age. Experiments were approved by the Institutional Animal Care and Use Committee. Human peripheral blood lymphocytes from healthy donors were obtained from the blood bank of Sheba Medical Center, Tel Hashomer, Israel.
NOD mice spontaneously develop diabetes mellitus similar to type I diabetes in humans. […] The mice were followed for the development of diabetes, marked by blood sugar above 300 mg/dl on 2 measurements.

CD4+ human T cells = assay: Real-time PCR verification of six gene-array genes; type: cell-based; settings: cDNA from the same RNA as the gene array; normalised to B2M
Experimental: To verify the results of the gene array, we synthesized real-time PCR primers (designed with the […]® probe design software (Roche)). Real-time PCR of 6 selected genes was performed using a […]® (Roche, Basel, Switzerland). RNA was reverse transcribed to cDNA from 1 μg of total RNA, which was then subjected to quantitative RT-PCR performed essentially according to the manufacturer's instructions. Specific primer pairs were used to amplify specific genes in the presence of 3 mM MgCl2. PCR was performed in triplicate in a total volume of 20 μl of […]® HotStart DNA SYBR Green I mix (Roche) containing primer and 5 μl of cDNA. […] Denaturation was performed for 15 s at 95° C., annealing was performed in 60° C., and the extension was performed at 72° C. for 20 s, with fluorescence detection at 72° C. after each cycle. After the final cycle, melting point analyses of all samples were performed within the range of 62-95° C. with continuous fluorescence detection. […]
The Human Autoimmune and Inflammatory Response Gene Array (SuperArray Bioscience corporation, Frederick, Md., USA) was used for analysis of gene expression by the T cells. […] To verify the results detected by the gene array study, a panel of six genes was designed and tested by real-time PCR: CCR4, ACVR2, JAK1, STAT4, TLR2 and NFKBIE. […]

[2] = test system: Adjuvant Arthritis (AA) in Lewis rats; assay: Adjuvant arthritis (AA) in rats, IP antibiotic treatment; type: in vivo, rat; settings: IP 5 mg (25 mg/kg) once every 2 or 3 days from day 12; versus non-injected control
[3] = test system: active experimental autoimmune encephalomyelitis (EAE) in Lewis rats; assay: Actively induced EAE in rats, oral antibiotic treatment; type: in vivo, rat; settings: oral cefuroxime Axetil in drinking water from day 7 post-induction, 50 mg/kg daily, versus the two control groups

| Pen 9 reactivity with lysates of antibiotic-treated T cells [1] | Structure (SMILES) | development of type I diabetes in NOD mice (NOD mice; FIG. 1D) | incidence of diabetes (NOD mice; at 5.7 months, s.c. at weekly intervals, ampicillin 1300 μg or ceftriaxone 675 μg per mouse, blood sugar above 300 mg/dl on 2 measurements, control 60%) | expression of CCR4, ACVR2, JAK1, STAT4, TLR2 and NFKBIE by real-time PCR (CD4+ human T cells) | arthritis scores [2] | severity of active EAE [3] |
| --- | --- | --- | --- | --- | --- | --- |
| did not bind | CC1(C)S[C@@H]2[C@H](NC(=O)[C@H](N)c3ccccc3)C(=O)N2[C@H]1C(=O)O [ampicillin] | Inhibition of type I diabetes | 30% |  |  |  |
|  | CO/N=C(\C(=O)N[C@@H]1C(=O)N2C(C(=O)O)=C(COC(N)=O)CS[C@H]12)c1ccco1 [cefuroxime] |  |  | suppressed | significantly more severe arthritis scores; also recorded: Exacerbation of adjuvant-induced arthritis | significantly more severe EAE; also recorded: increases the severity of actively induced EAE |
